Paper PMC3320663 (Chemmedchem, 2011)

Each molecule was assayed against T1, TbTryS (Trypanosoma brucei, UniProt Q586P2) (assay: Trypanothione synthetase). Settings: not given.
T1 sequence (Q586P2 1-627): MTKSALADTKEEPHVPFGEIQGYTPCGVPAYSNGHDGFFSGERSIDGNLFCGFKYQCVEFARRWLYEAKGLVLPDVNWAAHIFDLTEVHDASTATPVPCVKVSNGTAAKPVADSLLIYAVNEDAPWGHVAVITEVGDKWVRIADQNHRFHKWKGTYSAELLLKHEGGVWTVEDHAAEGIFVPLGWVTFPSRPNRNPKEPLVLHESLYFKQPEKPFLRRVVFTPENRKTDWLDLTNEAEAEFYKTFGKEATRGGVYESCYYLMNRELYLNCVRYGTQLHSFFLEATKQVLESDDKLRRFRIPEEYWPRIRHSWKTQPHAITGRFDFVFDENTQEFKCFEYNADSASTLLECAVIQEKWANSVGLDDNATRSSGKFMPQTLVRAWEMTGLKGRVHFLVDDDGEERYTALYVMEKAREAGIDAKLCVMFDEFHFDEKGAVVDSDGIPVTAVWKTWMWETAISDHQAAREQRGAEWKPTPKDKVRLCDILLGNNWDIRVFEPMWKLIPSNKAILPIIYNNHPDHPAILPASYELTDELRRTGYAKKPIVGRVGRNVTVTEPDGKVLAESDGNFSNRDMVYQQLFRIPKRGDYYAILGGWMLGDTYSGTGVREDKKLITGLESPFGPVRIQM
Format: biochemical

gain in potency relative to unsubstituted scaffold 14 | TbTryS activity in words | decrease in potency relative to 84 | loss in potency relative to unsubstituted compound 3 | Molecule
25 fold |  |  |  | CC(C)(C)C(=O)Cn1nnc(-c2cc(Cl)cc(Cl)c2)n1 [Compound 20, 1-(5-(3,5-Dichlorophenyl)-2H-tetrazol-2-yl)-3,3-dimethylbutan-2-one]
 | retained some inhibitory activity |  |  | CCN(CC)C(=O)Cn1nc(C(F)(F)F)c2c1CCCC2 [Compound 35, N,N-Diethyl-2-(3-(trifluoromethyl)-4,5,6,7-tetrahydro-1H-indazol-1-yl)acetamide]
 |  | eight |  | O=C(Cn1nc(-c2cccc(F)c2)c2ccccc21)NCCCn1ccnc1 [Compound 81, N-(3-(1H-Imidazol-1-yl)propyl)-2-(3-(3-fluorophenyl)-1H-indazol-1-yl)acetamide]
 |  |  | 10 fold | COc1cccc(-c2csc(CS(=O)(=O)C(C)(C)C)n2)c1 [Compound 6, 2-((tert-Butylsulfonyl)methyl)-4-(3-methoxyphenyl)thiazole]

Same assay, conditions: TbTryS IC50

IC50 | Molecule
600 nM | CN(C)C(=O)Cn1nnc(-c2cc(Cl)cc(Cl)c2)n1 [Compound 23, 2-(5-(3,5-Dichlorophenyl)-2H-tetrazol-2-yl)-N,N-dimethylacetamide]
28000 nM | Cc1nc(Cn2nc(-c3cccc(F)c3)c3ccccc32)c(C)o1 [Compound 77, 4-((3-(3-Fluorophenyl)-1H-indazol-1-yl)methyl)-2,5-dimethyloxazole]
860 nM | CN1CCN(CCNC(=O)Cn2nc(-c3cccc(F)c3)c3ccccc32)CC1 [Compound 90, 2-(3-(3-Fluorophenyl)-1H-indazol-1-yl)-N-(2-(4-methylpiperazin-1-yl)ethyl)acetamide]
8800 nM | CC(C)(C)C(=O)Cn1nnc(-c2ccccc2)n1 [Compound 14, 3,3-Dimethyl-1-(5-phenyl-2H-tetrazol-2-yl)butan-2-one]
37000 nM | Cc1nn(-c2ccccc2)nc1CNS(=O)(=O)C(C)(C)C [Compound 42, 2-Methyl-N-((5-methyl-2-phenyl-2H-1,2,3-triazol-4-yl)methyl)propane-2-sulfonamide]
300 nM | CC(C)(C)C(=O)Cn1nnc(-c2cc(Cl)cc(Cl)c2)n1 [Compound 20, 1-(5-(3,5-Dichlorophenyl)-2H-tetrazol-2-yl)-3,3-dimethylbutan-2-one]
220 nM | CC(C)(C)S(=O)(=O)Cc1nn(-c2ccccc2)c2ccccc12 [Compound 72, 3-(tert-Butylsulfonylmethyl)-1-phenyl-1H-indazole]
1900 nM | CC(C)(C)C(=O)Cn1nnc(-c2cc(F)cc(F)c2)n1 [Compound 19, 1-(5-(3,5-Difluorophenyl)-2H-tetrazol-2-yl)-3,3-dimethylbutan-2-one]
1100 nM | CC(C)(C)S(=O)(=O)Cc1nc(-c2ccccc2F)cs1 [Compound 5, 2-((tert-Butylsulfonyl)methyl)-4-(2-fluorophenyl)thiazole]
830 nM | CN1CCN(CCCNC(=O)Cn2nc(-c3cccc(F)c3)c3ccccc32)CC1 [Compound 80, 2-(3-(3-Fluorophenyl)-1H-indazol-1-yl)-N-(3-(4-methylpiperazin-1-yl)propyl)acetamide]
300 nM | CC(C)(C)C(=O)Cn1nc(-c2ccncc2)c2ccccc21 [Compound 65, 3,3-Dimethyl-1-(3-(pyridin-4-yl)-1H-indazol-1-yl)butan-2-one]
15000 nM | CCN(CC)C(=O)Cn1nc(C(F)(F)F)c2c1CCCC2 [Compound 35, N,N-Diethyl-2-(3-(trifluoromethyl)-4,5,6,7-tetrahydro-1H-indazol-1-yl)acetamide]
2900 nM | Fc1cccc(-c2nn(Cc3ccccn3)c3ccccc23)c1 [Compound 75, 3-(3-Fluorophenyl)-1-(pyridin-2-ylmethyl)-1H-indazole]
350 nM | O=C(Cn1nc(-c2cccc(F)c2)c2ccccc21)NCCCn1ccnc1 [Compound 81, N-(3-(1H-Imidazol-1-yl)propyl)-2-(3-(3-fluorophenyl)-1H-indazol-1-yl)acetamide]
110 nM | CN(C)C(=O)Cn1nc(-c2cccc(F)c2)c2ccccc21 [Compound 88, 2-(3-(3-Fluorophenyl)-1H-indazol-1-yl)-N,N-dimethylacetamide]
150 nM | CC(C)(C)C(=O)Cn1nc(-c2ccccc2)c2ccccc21 [Compound 60, 1-(3-Phenyl-1H-indazol-1-yl)-3,3-dimethylbutan-2-one]
> 100000 nM | O=C(Cn1nc(-c2cccc(F)c2)c2ccccc21)NCc1ccc(Cl)cc1 [Compound 86, N-(4-Chlorobenzyl)-2-(3-(3-fluorophenyl)-1H-indazol-1-yl)acetamide]
4500 nM | Fc1cccc(-c2nn(Cc3cccnc3)c3ccccc23)c1 [Compound 76, 3-(3-Fluorophenyl)-1-(pyridin-3-ylmethyl)-1H-indazole]
> 100000 nM | Cn1ccc2c(-c3nn(CC(=O)C(C)(C)C)c4ccccc34)cccc21 [Compound 63, 3,3-Dimethyl-1-(3-(1-methyl-1H-indol-4-yl)-1H-indazol-1-yl)butan-2-one]
1900 nM | CC(C)(C)C(=O)Cn1nc(-c2ccco2)c2ccccc21 [Compound 66, 1-(3-(Furan-2-yl)-1H-indazol-1-yl)-3,3-dimethylbutan-2-one]
> 100000 nM | CC(C)Cn1cc(-c2nn(CC(=O)C(C)(C)C)c3ccccc23)cn1 [Compound 69, 1-(3-(1-Isobutyl-1H-pyrazol-4-yl)-1H-indazol-1-yl)-3,3-dimethylbutan-2-one]
200 nM | CCN(CC)C(=O)Cn1nc(-c2cccc(F)c2)c2ccccc21 [Compound 87, N,N-Diethyl-2-(3-(3-fluorophenyl)-1H-indazol-1-yl)acetamide]
> 100000 nM | CC(C)(C)C(=O)Cn1nc(-c2ccc3ccccc3c2)c2ccccc21 [Compound 64, 3,3-Dimethyl-1-(3-(naphthalen-2-yl)-1H-indazol-1-yl)butan-2-one]
120 nM | CC(C)(C)S(=O)(=O)Cn1nc(-c2cccc(F)c2)c2ccccc21 [Compound 74, 1-(tert-Butylsulfonylmethyl)-3-(3-fluorophenyl)-1H-indazole]
145 nM | CN(C)CCNC(=O)Cn1nc(-c2cccc(F)c2)c2ccccc21 [Compound 83, N-(2-(Dimethylamino)ethyl)-2-(3-(3-fluorophenyl)-1H-indazol-1-yl)acetamide]
6500 nM | CC(=O)Cn1nnc(-c2cc(Cl)cc(Cl)c2)n1 [Compound 21, 1-(5-(3,5-Dichlorophenyl)-2H-tetrazol-2-yl)propan-2-one]
1100 nM | CC(C)(C)S(=O)(=O)Cc1nc(-c2cccc(C(F)(F)F)c2)cs1 [Compound 7, 2-(tert-Butylsulfonylmethyl)-4-(3-trifluoromethylphenyl)thiazole]
45000 nM | O=C(Cn1nnc(-c2cc(F)cc(F)c2)n1)c1ccccc1 [Compound 24, 2-(5-(3,5-Difluorophenyl)-2H-tetrazol-2-yl)-1-phenylethanone]
12000 nM | COc1cccc(-c2csc(CS(=O)(=O)C(C)(C)C)n2)c1 [Compound 6, 2-((tert-Butylsulfonyl)methyl)-4-(3-methoxyphenyl)thiazole]
3700 nM | CC(C)(C)C(=O)Cn1nc(-c2cccc3[nH]ccc23)c2ccccc21 [Compound 62, 1-(3-(1H-Indol-4-yl)-1H-indazol-1-yl)-3,3-dimethylbutan-2-one]

Same assay, conditions: calculated as −0.6×ln(IC50)/(heavy atom count)

LE (ligand efficiency) | Molecule
0.26 | Cc1nc(Cn2nc(-c3cccc(F)c3)c3ccccc32)c(C)o1 [Compound 77, 4-((3-(3-Fluorophenyl)-1H-indazol-1-yl)methyl)-2,5-dimethyloxazole]
0.29 | CN1CCN(CCNC(=O)Cn2nc(-c3cccc(F)c3)c3ccccc32)CC1 [Compound 90, 2-(3-(3-Fluorophenyl)-1H-indazol-1-yl)-N-(2-(4-methylpiperazin-1-yl)ethyl)acetamide]
0.39 | CC(C)(C)C(=O)Cn1nnc(-c2ccccc2)n1 [Compound 14, 3,3-Dimethyl-1-(5-phenyl-2H-tetrazol-2-yl)butan-2-one]
0.45 | CC(C)(C)C(=O)Cn1nnc(-c2cc(Cl)cc(Cl)c2)n1 [Compound 20, 1-(5-(3,5-Dichlorophenyl)-2H-tetrazol-2-yl)-3,3-dimethylbutan-2-one]
0.40 | CC(C)(C)S(=O)(=O)Cc1nn(-c2ccccc2)c2ccccc12 [Compound 72, 3-(tert-Butylsulfonylmethyl)-1-phenyl-1H-indazole]
0.35 | N-Methyl-(3-(dimethylamino)propyl)-2-(3-(3-fluorophenyl)-1H-indazol-1-yl)acetamide [Compound 85]
0.41 | 3-(tert-Butylsulfonylmethyl)-1-(3-fluorophenyl)-1H-indazole [Compound 73]
0.28 | CN1CCN(CCCNC(=O)Cn2nc(-c3cccc(F)c3)c3ccccc32)CC1 [Compound 80, 2-(3-(3-Fluorophenyl)-1H-indazol-1-yl)-N-(3-(4-methylpiperazin-1-yl)propyl)acetamide]
0.33 | Fc1cccc(-c2nn(Cc3ccccn3)c3ccccc23)c1 [Compound 75, 3-(3-Fluorophenyl)-1-(pyridin-2-ylmethyl)-1H-indazole]
0.32 | O=C(Cn1nc(-c2cccc(F)c2)c2ccccc21)NCCCn1ccnc1 [Compound 81, N-(3-(1H-Imidazol-1-yl)propyl)-2-(3-(3-fluorophenyl)-1H-indazol-1-yl)acetamide]
0.44 | CN(C)C(=O)Cn1nc(-c2cccc(F)c2)c2ccccc21 [Compound 88, 2-(3-(3-Fluorophenyl)-1H-indazol-1-yl)-N,N-dimethylacetamide]
0.32 | Fc1cccc(-c2nn(Cc3cccnc3)c3ccccc23)c1 [Compound 76, 3-(3-Fluorophenyl)-1-(pyridin-3-ylmethyl)-1H-indazole]
0.39 | CCN(CC)C(=O)Cn1nc(-c2cccc(F)c2)c2ccccc21 [Compound 87, N,N-Diethyl-2-(3-(3-fluorophenyl)-1H-indazol-1-yl)acetamide]
0.40 | CC(C)(C)S(=O)(=O)Cn1nc(-c2cccc(F)c2)c2ccccc21 [Compound 74, 1-(tert-Butylsulfonylmethyl)-3-(3-fluorophenyl)-1H-indazole]
0.38 | CN(C)CCNC(=O)Cn1nc(-c2cccc(F)c2)c2ccccc21 [Compound 83, N-(2-(Dimethylamino)ethyl)-2-(3-(3-fluorophenyl)-1H-indazol-1-yl)acetamide]

Same assay, conditions: indazole series, initial compound 60

loss in activity (heterocycle at indazole position 3) | Molecule
10 fold | CC(C)(C)C(=O)Cn1nc(-c2ccco2)c2ccccc21 [Compound 66, 1-(3-(Furan-2-yl)-1H-indazol-1-yl)-3,3-dimethylbutan-2-one]

Same assay, conditions: read-out: TbTryS IC50

IC50 | Molecule
170 nM | N-Methyl-(3-(dimethylamino)propyl)-2-(3-(3-fluorophenyl)-1H-indazol-1-yl)acetamide [Compound 85]
80 nM | 3-(tert-Butylsulfonylmethyl)-1-(3-fluorophenyl)-1H-indazole [Compound 73]
